One series deals with Male Wistar rats. Kind of series: Sleep-wakefulness, locomotor activity and body temperature monitoring (SCORE-2000) in rats.
The target in a further series is T1, muscarinic1 binding site (Bos taurus, UniProt F1N5C5).
T1 sequence (F1N5C5 1-460): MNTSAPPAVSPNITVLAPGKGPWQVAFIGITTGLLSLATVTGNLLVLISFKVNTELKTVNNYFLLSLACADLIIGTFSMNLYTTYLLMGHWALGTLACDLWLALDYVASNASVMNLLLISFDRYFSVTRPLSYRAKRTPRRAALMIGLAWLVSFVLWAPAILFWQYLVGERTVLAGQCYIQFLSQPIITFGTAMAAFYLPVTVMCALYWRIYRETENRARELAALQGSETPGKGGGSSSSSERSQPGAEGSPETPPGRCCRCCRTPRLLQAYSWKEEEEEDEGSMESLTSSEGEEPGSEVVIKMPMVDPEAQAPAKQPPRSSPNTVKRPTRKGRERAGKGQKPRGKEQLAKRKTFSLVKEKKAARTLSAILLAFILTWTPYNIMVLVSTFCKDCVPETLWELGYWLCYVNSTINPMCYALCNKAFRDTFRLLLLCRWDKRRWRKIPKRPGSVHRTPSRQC
The experiment in a line: biochemical.

Another series concerns the target T2, histamine receptor, H1 (Bos taurus, UniProt P30546).
T2 construct: from tissue; host or cells: bovine cerebellar membranes (per earlier reading)
The experiment in a line: H1 binding assay, displacement of [3H]Pyrilamine, bovine cerebellar membranes. Background: In a radioligand displacement assay an active substance lowers the binding of a labelled ligand.

For series [1], the target named is T3, cloned muscarinic - M1 binding site (Homo sapiens, UniProt P11229).
T3 construct: expressed in transfected cells; host or cells: CHO cells
T3 sequence (P11229 1-460): T1 sequence (F1N5C5 1-460) with A206T, T265A, A315T, R331K, E335D
Kind of series: Muscarinic M1 binding assay, [3H]-Scopolamine N-Methyl Chloride, human recombinant expressed in CHO cells.

Series [2] deals with T4, cloned muscarinic - M2 binding site (Homo sapiens, UniProt P08172).
T4 construct: expressed in transfected cells; host or cells: CHO cells
T4 sequence (P08172 1-466): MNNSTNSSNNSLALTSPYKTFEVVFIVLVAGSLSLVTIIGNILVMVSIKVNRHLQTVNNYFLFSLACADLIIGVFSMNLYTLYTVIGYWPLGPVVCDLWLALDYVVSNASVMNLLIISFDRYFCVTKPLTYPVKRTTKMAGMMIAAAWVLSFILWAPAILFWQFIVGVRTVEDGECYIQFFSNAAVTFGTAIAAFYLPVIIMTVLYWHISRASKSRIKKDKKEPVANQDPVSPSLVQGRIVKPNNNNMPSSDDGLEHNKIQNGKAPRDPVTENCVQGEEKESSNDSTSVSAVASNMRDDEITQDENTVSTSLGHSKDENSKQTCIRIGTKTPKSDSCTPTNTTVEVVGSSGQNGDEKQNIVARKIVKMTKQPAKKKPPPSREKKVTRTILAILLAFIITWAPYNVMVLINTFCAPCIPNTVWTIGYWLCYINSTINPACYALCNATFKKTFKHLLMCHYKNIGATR
The experiment in a line: Muscarinic M2 binding assay, [3H]-Scopolamine N-Methyl Chloride, human recombinant expressed in CHO cells.

Series [3] deals with T5, cloned muscarinic - M3 binding site (Homo sapiens, UniProt P20309).
T5 construct: expressed in transfected cells; host or cells: CHO cells
T5 sequence (P20309 whole entry): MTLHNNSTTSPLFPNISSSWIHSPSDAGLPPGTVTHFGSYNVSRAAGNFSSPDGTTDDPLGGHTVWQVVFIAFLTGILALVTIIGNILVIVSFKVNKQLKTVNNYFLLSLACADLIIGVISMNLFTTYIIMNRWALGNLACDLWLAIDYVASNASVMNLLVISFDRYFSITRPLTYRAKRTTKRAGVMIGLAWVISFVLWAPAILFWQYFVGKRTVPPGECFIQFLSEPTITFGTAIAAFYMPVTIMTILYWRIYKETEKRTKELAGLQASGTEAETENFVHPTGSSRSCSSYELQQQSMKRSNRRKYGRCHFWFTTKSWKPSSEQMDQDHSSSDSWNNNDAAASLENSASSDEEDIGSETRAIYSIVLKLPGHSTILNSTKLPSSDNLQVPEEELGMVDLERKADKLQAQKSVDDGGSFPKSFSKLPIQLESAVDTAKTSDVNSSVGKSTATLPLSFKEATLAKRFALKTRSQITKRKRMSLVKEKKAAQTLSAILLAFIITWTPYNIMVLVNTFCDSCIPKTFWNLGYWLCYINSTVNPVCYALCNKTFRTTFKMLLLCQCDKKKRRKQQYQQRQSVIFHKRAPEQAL
Kind of series: Muscarinic M3 binding assay, [3H]-Scopolamine N-Methyl Chloride, human recombinant expressed in CHO cells.

Where [4] appears, read: Table 6, read-out: Receptor Binding Data (Ki nM) H1.
[5] abbreviates: Table 6, human recombinant, read-out: Receptor Binding Data (Ki nM) M1.
Setting [6] is: Table 6, human recombinant, read-out: Receptor Binding Data (Ki nM) M2.
[7] abbreviates: Table 6, human recombinant, read-out: Receptor Binding Data (Ki nM) M3.
The mark [8] stands for this setting: Series 11 compounds, Table 5, unit inferred, read-out: H1 Ki.
[9] abbreviates: Series 11 compounds, Table 5, unit inferred, receptor source not given.
Where [10] appears, read: Series 11 compounds, Table 5, unit inferred, receptor source not given, read-out: M1 Ki.
Where [11] appears, read: Series 11 compounds, Table 5, unit inferred, receptor source not given, read-out: M2 Ki.
Where [12] appears, read: Series 11 compounds, Table 5, unit inferred, receptor source not given, read-out: M3 Ki.
The mark [13] stands for this setting: Series 11 compounds, Table 5, unit inferred.

Positions count from the first letter of the chain named. Structures can show the parent of a compound that is named as a salt. Where two headings read alike, the source gives them in different places.

T2 sequence (P30546 whole entry): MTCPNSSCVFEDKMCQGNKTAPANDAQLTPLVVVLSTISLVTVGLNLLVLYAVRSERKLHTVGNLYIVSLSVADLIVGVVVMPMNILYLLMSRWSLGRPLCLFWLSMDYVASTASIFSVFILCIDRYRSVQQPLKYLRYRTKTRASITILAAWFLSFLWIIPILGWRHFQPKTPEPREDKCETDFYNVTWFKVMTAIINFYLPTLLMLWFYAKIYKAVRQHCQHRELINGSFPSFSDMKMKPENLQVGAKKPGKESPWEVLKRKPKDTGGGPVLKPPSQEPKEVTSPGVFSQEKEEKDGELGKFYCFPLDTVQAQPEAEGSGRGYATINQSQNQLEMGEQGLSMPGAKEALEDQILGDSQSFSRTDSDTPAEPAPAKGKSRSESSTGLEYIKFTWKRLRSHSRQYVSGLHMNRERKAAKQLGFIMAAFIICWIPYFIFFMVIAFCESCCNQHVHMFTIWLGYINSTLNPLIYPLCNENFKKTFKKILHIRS

For the compound `Cc1ccc(-c2nc3ccc(C)cn3c2CC(=O)N(C)C)cc1` [Ambien, Zolpidem, reference compound], in the series on Male Wistar rats (30 mg/kg IP, at CT-18, rats), the “Motor Inhibition” value was “YES”, the “REM Inhibition” value is “YES” and the “Rebound Insomnia” value was “YES”.
In turn, `CN1[C@@H]2CC[C@H]1C[C@@H](OC(=O)C(CO)c1ccccc1)C2` (stereo partly drawn) [Atropine] displayed an inhibition constant Ki at muscarinic1 binding site of 0.4 nM.
Regarding `O=C(O)CCN1CCC(OC(c2ccccc2)c2ccccc2)CC1` [Compound 6a, 3-[4-(dipbenylmethoxy)piperidin-1-yl]propanoic acid hydrochloride], the Ki is 56.1 nM on histamine receptor, H1 (setting [4]); more than 10000 nM in series [1] (setting [5]); more than 10000 nM in series [2] (setting [6]); 8900 nM in series [3] (setting [7]).
Take `O=C(O)CN1CCC(=C2c3ccccc3COc3ccccc32)CC1` [Compound 7a]: the Ki at histamine receptor, H1 (setting [4]) came out at 55.1 nM.
With `O=C(O)CCN1CCC(=C2c3ccccc3COc3ccccc32)CC1` [Compound 8a], the Ki on histamine receptor, H1 (setting [4]) was 62.5 nM; in series [1] (setting [5]), more than 10000 nM; in series [2] (setting [6]), more than 10000 nM; in series [3] (setting [7]), more than 10000 nM.
On to `O=C(O)CCN1CCC(=C(c2ccccc2)c2ccccc2)CC1` [Compound 11a], for which the Ki at histamine receptor, H1 (setting [8]) was 119 nM; in series [1] (setting [10]), more than 10000 nM; in series [2] (setting [11]) it was more than 10000 nM; in series [3] (setting [12]), more than 10000 nM. Further, the IC50 in series [1] (setting [9]), in series [2] (setting [9]) and in series [3] (setting [9]) was more than 10000 nM each time.
As for `CC(C)OC(=O)CCN1CCC(=C(c2ccccc2)c2ccccc2)CC1` [Compound 11d, Isopropyl 3-[4-(diphenylmethylidene)piperidin-1-yl]propanoate], the Ki on histamine receptor, H1 (setting [8]) amounted to 147 nM; in series [1] (setting [10]), 696 nM; in series [2] (setting [11]), 270 nM; in series [3] (setting [12]), 2700 nM. The IC50 came to 8000 nM in series [1] (setting [9]), 829 nM in series [2] (setting [9]) and 6080 nM in series [3] (setting [9]).
In the case of `CC(C)COC(=O)CCN1CCC(=C(c2ccccc2)c2ccccc2)CC1` [Compound 11e, Isobutyl 3-[4-(diphenylmethylidene)piperidin-1-yl]propanoate], the Ki on histamine receptor, H1 (setting [8]) is 279 nM; in series [1] (setting [10]), 289 nM; in series [2] (setting [11]), 1150 nM; in series [3] (setting [12]) it was 710 nM. Moreover, the values for the IC50 in series [1] (setting [9]), in series [2] (setting [9]) and in series [3] (setting [9]) were 3760 nM, 3550 nM and 2590 nM, respectively.
As for `O=C(CCN1CCC(=C(c2ccccc2)c2ccccc2)CC1)OC1CCCC1.O=C(O)C(=O)O` [Compound 11f, Cyclopentyl 3-[4-(diphenylmethylidene)piperidin-1-yl]propanoate, oxalic acid salt], the Ki was 416 nM on histamine receptor, H1 (setting [8]) and 170 nM in series [1] (setting [10]). In addition, in series [1] (setting [9]), the IC50 was 2210 nM. In addition, the “cumulative effect on total sleep time (TST) during the initial 5 hours post-treatment, relative to baseline” value in the series on Male Wistar rats (11f 30 mg/kg versus Zolpidem 10 mg/kg, rats, FIG. 1(b)) was “induced more TST than Zolpidem”. Moreover, in the series with Male Wistar rats (male Wistar rats, IP at CT-18, 10 and 30 mg/kg), the locomotor activity entry is on record as “reduction in locomotor activity”. Further, the “sleep continuity, as assessed by sleep bout length” value with Male Wistar rats (male Wistar rats, IP at CT-18, 10 and 30 mg/kg, relative to vehicle control) was “increased sleep continuity”. The total sleep time entry in the series on Male Wistar rats (male Wistar rats, IP at CT-18, both 30 mg/kg and 10 mg/kg) was “significantly increased total sleep time for 3 hours post-treatment”. Further, the “soporific effects (nonREM sleep time, sleep continuity)” value in the series on Male Wistar rats (male Wistar rats, intraperitoneal bolus at CT-18, 11f 30 and 10 mg/kg, 6f and 15f 30 mg/kg) is listed as “robust soporific effects”.
In the case of `O=C(CCN1CCC(=C(c2ccccc2)c2ccccc2)CC1)O[C@H]1CCOC1` [Compound 11g], the IC50 at histamine receptor, H1 (setting [13]) worked out at 196 nM. Besides, the Ki at histamine receptor, H1 (setting [8]) was 86.1 nM.
With `O=C(CCN1CCC(=C(c2ccccc2)c2ccccc2)CC1)OC1CCOC1` (stereo not drawn) [Compound 11h], the half-maximal inhibitory concentration (IC50) at histamine receptor, H1 (setting [13]) is 201 nM; in series [1] (setting [9]) it was 2240 nM; in series [2] (setting [9]) it was 2140 nM; in series [3] (setting [9]) it was 2200 nM. For the same compound, the Ki was found to be 88.3 nM on histamine receptor, H1 (setting [8]); 172 nM in series [1] (setting [10]); 697 nM in series [2] (setting [11]); 603 nM in series [3] (setting [12]).
For `O=C(CCN1CCC(=C(c2ccccc2)c2ccccc2)CC1)OC1CCOCC1` [Compound 11i], the IC50 worked out at 200 nM at histamine receptor, H1 (setting [13]); 221 nM in series [1] (setting [9]); 221 nM in series [2] (setting [9]); 2330 nM in series [3] (setting [9]). The Ki amounted to 87.8 nM on histamine receptor, H1 (setting [8]); 17 nM in series [1] (setting [10]); 72 nM in series [2] (setting [11]); 1030 nM in series [3] (setting [12]).
Regarding `Cc1ccc(/C(=C\CN2CCCC2)c2cccc(C(=O)O)n2)cc1` [Compound 16a], the Ki in series [1] (setting [5]), in series [2] and in series [3] (setting [7]) was more than 10000 nM throughout.
`O=C(O)CCCN1CCC(OC(c2ccccc2)c2ccccc2)CC1` [Compound 53a]: the Ki on histamine receptor, H1 (setting [4]) is 16.1 nM; in series [1] (setting [5]), more than 10000 nM; in series [2] (setting [6]), more than 10000 nM; in series [3] (setting [7]), more than 10000 nM.
In the case of `O=C(O)CCCN1CCC(=C2c3ccccc3COc3ccccc32)CC1` [Compound 73a], the Ki is 42.8 nM at histamine receptor, H1 (setting [4]); more than 10000 nM in series [1] (setting [5]); more than 10000 nM in series [2] (setting [6]); more than 10000 nM in series [3] (setting [7]).
For `CC(C)(CN1CCC(=C2c3ccccc3COc3ccccc32)CC1)C(=O)O` [Compound 74a], the Ki at histamine receptor, H1 (setting [4]) is 109 nM; in series [1] (setting [5]) it was more than 10000 nM; in series [2] (setting [6]), more than 10000 nM; in series [3] (setting [7]), more than 10000 nM.
With `CC(C)(CCN1CCC(=C2c3ccccc3COc3ccccc32)CC1)C(=O)O` [Compound 75a], the Ki on histamine receptor, H1 (setting [4]) was 47.9 nM; in series [1] (setting [5]), more than 10000 nM; in series [2] (setting [6]) it was 3330 nM; in series [3] (setting [7]), more than 10000 nM.
For the compound `CN(C)CCCSC(=N)N` [Dimaprit, reference compound], on histamine receptor, H1 (reference compounds, bovine cerebellar membranes, [3H]Pyrilamine 2.0 nM, read-out: Ki), the Ki is more than 10000 nM.
`COc1ccccc1CNCCCCCCNCCCCCCCCNCCCCCCNCc1ccccc1OC` [Methoctramine, reference compound]: the Ki in series [1] stood at 29.7 nM; in series [3] (reference compounds, M3 human recombinant in CHO cells, read-out: Ki), 700 nM.
In the case of `Cc1scc2c1N(C(=O)CN1CCN(C)CC1)c1ccccc1NC2=O` [Telenzepine], on muscarinic1 binding site, affinity was put at a Ki of 64.5 nM.
Turning to `CC(C)OC(=O)CN1CCC(=C2c3ccccc3COc3ccccc32)CC1` [dox7d-oxalate], the Ki on histamine receptor, H1 (setting [4]) was 198 nM; in series [1] (setting [5]) it was more than 10000 nM; in series [2] (setting [6]), more than 10000 nM; in series [3] (setting [7]), more than 10000 nM.

Broadly, the Ki is the dissociation constant of the complex between target and ligand, obtained from inhibition or displacement. The term IC50 denotes the point on the concentration scale where inhibition reaches its midpoint.

These data come from patent US20040142972A1, “CNS target modulators” (Hypnion, Inc., priority 2001, published 2004).
